Experimental data published in US7601734B2, “Cyclic amine compound” (Taisho Pharmaceutical Co., Ltd., priority 2004, dated 2009).
pIC50: −log10 of the molar value. Where two headings read alike, the source gives them in different places.

What was measured:
[1] = target: T1, human α2C-adrenoceptor (Homo sapiens, UniProt P18825); assay: α2C-Adrenoceptor binding experiment ([3H] MK912 displacement, crude membrane sample); settings: for IC50: membranes of human α2C-adrenoceptor expressing COS-1 cells, [3H] MK912 0.08 nM, 25° C., 60 minutes, read-out: Ability to Inhibit (IC50, nM) α 2C
T1 construct: expressed in transfected cells; host or cells: COS-1 cells
T1 sequence (P18825 1-462): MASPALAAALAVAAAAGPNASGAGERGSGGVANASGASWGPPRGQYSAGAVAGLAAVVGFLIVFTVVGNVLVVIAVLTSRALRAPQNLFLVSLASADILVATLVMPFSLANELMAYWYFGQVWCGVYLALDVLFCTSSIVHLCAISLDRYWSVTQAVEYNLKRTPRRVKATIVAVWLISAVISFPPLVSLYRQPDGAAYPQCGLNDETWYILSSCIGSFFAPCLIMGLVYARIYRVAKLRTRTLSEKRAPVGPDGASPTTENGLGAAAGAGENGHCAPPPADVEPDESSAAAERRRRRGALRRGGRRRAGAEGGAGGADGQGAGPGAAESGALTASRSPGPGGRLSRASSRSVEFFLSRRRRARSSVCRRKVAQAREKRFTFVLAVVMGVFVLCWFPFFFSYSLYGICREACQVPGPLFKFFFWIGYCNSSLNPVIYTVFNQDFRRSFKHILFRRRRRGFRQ
Procedure: The subject experiment was performed by a method improved from the method described in Uhlen et al., Journal of Pharmacology and Experimental Therapeutics (1994), 1558-1565. Briefly, human α2C-adrenoceptor expressing COS-1 cells were homogenized with 50 mM Tris-HCl buffer (pH 7.4) containing 12.5 mM magnesium hydrochloride and 1 mM EDTA. The resultant homogenate was centrifuged at 48,000×g for 20 minutes at 4° C. twice. The precipitate was suspended in 50 mM Tris-HCl buffer (pH 7.4) containing 12.5 mM magnesium hydrochloride and 1 mM EDTA to give a protein concentration of 150 μg/ml. This suspension was used in binding experiments as a crude membrane sample. The crude membrane sample (0.5 ml, 75 μg protein) was reacted with [^3H] MK912 (final concentration 0.08 nM) at 25° C. for 60 minutes. After completion of the reaction, the reaction mixture was vacuum filtered on GF/B glass fiber filter pre-immersed in 0.3% polyethyleneimine for 2 hours, using a cell harvester for binding experiments. The filter was placed in a glass vial containing 8 ml of Aquasol 2, and the radioactivity thereof was measured with a liquid scintillation counter. The amount of binding in the presence of 10 μM rauwolcine was taken as non-specific binding. The value obtained by subtracting non-specific binding from the total binding in the absence of 10 μM rauwolcine was taken as specific binding. Each of the test compounds was dissolved in 100% dimethyl sulfoxide solution and added to the membrane sample simultaneously with [^3H] MK912. IC50 values were calculated from inhibition curves at concentrations from 0.1 nM to 1 μM.

[2] = target: T2, human α2A-adrenoceptor (Homo sapiens, UniProt P08913); assay: α2A-Adrenoceptor binding experiment ([3H] MK912 displacement, crude membrane sample); settings: membranes of human α2A-adrenoceptor expressing COS-7 cells; [3H] MK912 1 nM; 25° C., 60 minutes; read-out: Ability to Inhibit (IC50, nM) α 2A
T2 construct: expressed in transfected cells; host or cells: COS-7 cells
T2 sequence (P08913 1-465): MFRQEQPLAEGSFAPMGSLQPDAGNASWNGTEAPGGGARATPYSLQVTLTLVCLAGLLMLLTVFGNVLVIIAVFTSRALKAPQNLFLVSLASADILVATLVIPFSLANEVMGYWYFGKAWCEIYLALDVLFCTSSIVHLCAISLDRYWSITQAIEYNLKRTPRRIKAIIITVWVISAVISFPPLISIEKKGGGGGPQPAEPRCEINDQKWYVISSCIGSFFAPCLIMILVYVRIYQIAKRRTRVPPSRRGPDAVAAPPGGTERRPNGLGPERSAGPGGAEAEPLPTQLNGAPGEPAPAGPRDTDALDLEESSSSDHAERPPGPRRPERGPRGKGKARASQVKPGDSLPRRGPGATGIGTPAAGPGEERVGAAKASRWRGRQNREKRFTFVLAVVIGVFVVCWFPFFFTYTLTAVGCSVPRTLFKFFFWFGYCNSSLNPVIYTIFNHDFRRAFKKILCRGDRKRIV
Procedure: The subject experiment was performed by a method improved from the method described in Uhlen et al., Journal of Pharmacology and Experimental Therapeutics (1994), 1558-1565. Briefly, human α2A-adrenoceptor expressing COS-7 cells were homogenized with 50 mM Tris-HCl buffer (pH 7.4) containing 12.5 mM magnesium hydrochloride and 1 mM EDTA. The resultant homogenate was centrifuged at 48,000×g for 20 minutes at 4° C. twice. The precipitate was suspended in 50 mM Tris-HCl buffer (pH 7.4) containing 12.5 mM magnesium hydrochloride and 1 mM EDTA to give a protein concentration of 200 μg/ml. This suspension was used in binding experiments as a crude membrane sample. The crude membrane sample (0.1 ml, 20 μg protein, reaction volume 0.2 ml) was reacted with [^3H] MK912 (final concentration 1 nM) at 25° C. for 60 minutes. After completion of the reaction, the reaction mixture was vacuum filtered on GF/C glass fiber plate pre-immersed in 0.3% polyethyleneimine for 2 hours, using a Filtermate Harvester. Microscinti-0 (40 μl) was added to the plate, and the radioactivity was measured with Top Count (PerkinElmer). The amount of binding in the presence of 10 μM rauwolcine was taken as non-specific binding. The value obtained by subtracting non-specific binding from the total binding in the absence of 10 μM rauwolcine was taken as specific binding. Each of the test compounds was dissolved in 100% DMSO solution and added to the membrane sample simultaneously with [^3H] MK912. IC50 values were calculated from inhibition curves at concentrations from 1 nM to 10 μM.

Row | IC50 [1] [nM] | IC50 [2] [nM] | melting point [°C] | Structure (SMILES) | pIC50 [1]
1 | 10 | 243 |  | c1ccc(C(CCCN2CCc3oc4ccccc4c3C2)c2ccccc2)cc1 [Compound 15, 2-(4,4-diphenylbutyl)-1,2,3,4-tetrahydro-[1]-benzofuro[3,2-C]pyridine] | 
2 | 5.8 | 204 | 174 to 179.5 | Cl.NC(=O)C(CCCN1CCc2oc3ccccc3c2C1)(c1ccc(F)cc1)c1ccc(F)cc1 [Compound 3, 5-(3,4-dihydro[1]benzofuro[3,2-c]pyridine-2(1H)-yl)-2,2-bis(4-fluorophenyl)pentanoic acid amide] | 
3 | 12 | 102 |  | N#CC1(CCCN2CCc3oc4ccccc4c3C2)c2ccccc2Oc2ccccc21 [Compound 16, 9-[3-(3,4-dihydro-[1]-benzofuro[3,2-C]pyridine-2(1H)-yl)-propyl]-9H-xanthene-carbonitrile] | 
4 | 280 | 4830 |  | Cn1c2c(c3ccccc31)CN(CCCC(C#N)(c1ccccc1)c1ccccc1)CC2 [Compound 9, 5-(5-methyl-1,3,4,5-tetrahydro-2H-pyrido[4,3-b]indole-2-yl)-2,2-diphenyl-pentanenitrile] | 
5 | 5.7 | 139 | 195 to 199 | Cl.N#CC(CCCN1CCc2oc3ccccc3c2C1)(c1ccccc1)c1ccccc1 [Compound 5, 5-(3,4-dihydro[1]benzofuro[3,2-c]pyridine-2(1H)-yl)-2,2-diphenylpentanenitrile] | 
6 | 299 | 1480 |  | N#CC(CCCN1CCc2sc3ccccc3c2C1)(c1ccccc1)c1ccccc1 [Compound 7, 5-(3,4-dihydro-[1]-benzothieno[3,2-C]pyridine-2(1H)-yl)-2,2-diphenyl-pentanenitrile] | 
7 | 142 | 935 |  | O=C(O)C(CCCN1CCc2oc3ccccc3c2C1)(c1ccc(F)cc1)c1ccc(F)cc1 [Compound 2, 5-(3,4-dihydro[1]benzofuro[3,2-c]pyridine-2(1H)-yl)-2,2-bis(4-fluorophenyl)pentanoic acid] | 
8 | 9.3 | 136 | 113.5 to 120.5 | Cl.N#CC(CCCN1CCc2oc3ccccc3c2C1)(c1ccc(F)cc1)c1ccc(F)cc1 [Compound 4, 5-(3,4-dihydro[1]benzofuro[3,2-c]pyridine-2(1H)-yl)-2,2-bis(4-fluorophenyl)pentanenitrile] | 
9 | 28 | 416 |  | COC(=O)C(CCCN1CCc2oc3ccccc3c2C1)(c1ccc(F)cc1)c1ccc(F)cc1 [Compound 1, Methyl 5-(3,4-dihydro[1]benzofuro[3,2-c]pyridine-2(1H)-yl)-2,2-bis(4-fluorophenyl)pentanoate] | 
10 | 53 | 563 |  | COc1ccc2oc3c(c2c1)CN(CCCC(C#N)(c1ccccc1)c1ccccc1)CC3 [Compound 13, 5-(8-methoxy-3,4-dihydro-[1]-benzofuro[3,2-C]pyridine-2(1H)-yl)-2,2-diphenyl-pentanenitrile] | 

Row | Structure (SMILES) | IC50 [1] [nM] | IC50 [2] [nM] | melting point [°C] | pIC50 [1]
11 | N#CC(CCCN1CCc2oc3ccc(Cl)cc3c2C1)(c1ccccc1)c1ccccc1 [Compound 11, 5-(8-chloro-3,4-dihydro-[1]-benzofuro[3,2-C]pyridine-2(1H)-yl)-2,2-diphenyl-pentanenitrile] | 203 | 1720 |  | 
12 | N#CC(CCCN1CCc2[nH]c3ccccc3c2C1)(c1ccccc1)c1ccccc1 [Compound 8, 2,2-diphenyl-5-(1,3,4,5-tetrahydro-2H-pyrido[4,3-b]indole-2-yl)-pentanenitrile] | 121 | 1290 |  | 
13 | N#CC(CCCN1CCc2oc3ccc(F)cc3c2C1)(c1ccccc1)c1ccccc1 [Compound 10, 5-(8-fluoro-3,4-dihydro-[1]-benzofuro[3,2-C]pyridine-2(1H)-yl)-2,2-diphenyl-pentanenitrile] |  | 504 |  | 7.55
